Measured values from paper PMC7827406, “Structure–Activity Relationship (SAR) Study of Spautin-1 to Entail the Discovery of Novel NEK4 Inhibitors” (International Journal of Molecular Sciences, 2021).
Read-outs that look alike come from different tables or passages of the source.

Tests used:
Assay in all cases: biochemical
Set-up in all cases: Eurofins KinaseProfiler full panel at Km ATP, residual kinase activity (%) relative to DMSO
Aurora-A(h) = target: T1, Aurora-A(h) (Homo sapiens, UniProt O14965)
T1 construct: gene AURKA
T1 sequence (O14965 1-403): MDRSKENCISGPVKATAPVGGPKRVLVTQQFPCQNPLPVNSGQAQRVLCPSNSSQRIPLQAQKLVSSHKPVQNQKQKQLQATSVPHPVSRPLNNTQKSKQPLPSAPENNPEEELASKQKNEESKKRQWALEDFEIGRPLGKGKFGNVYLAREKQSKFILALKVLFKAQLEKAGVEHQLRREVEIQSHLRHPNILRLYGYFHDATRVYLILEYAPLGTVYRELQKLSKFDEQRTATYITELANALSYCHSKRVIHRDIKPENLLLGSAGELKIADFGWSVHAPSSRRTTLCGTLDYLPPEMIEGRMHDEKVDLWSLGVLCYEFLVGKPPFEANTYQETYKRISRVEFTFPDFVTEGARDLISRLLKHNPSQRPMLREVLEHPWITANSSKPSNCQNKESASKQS
Summary of the method: (§1)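 Compounds screened at 10 µM in radiometric kinase activity assays at Km ATP, reported as remaining kinase activity (%). A KINOMEscan competition-binding screen at 10 µM measured DNA-tagged kinase retained on immobilized active-site ligand by qPCR.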

Blk(m) = Blk(m) (Mus musculus, UniProt P16277)
Summary of the method: as §1

CDK13/cyclinK(h) = CDK13/cyclinK(h) (Homo sapiens, UniProt Q14004)
CDK13/cyclinK(h), sequence (Q14004 whole entry): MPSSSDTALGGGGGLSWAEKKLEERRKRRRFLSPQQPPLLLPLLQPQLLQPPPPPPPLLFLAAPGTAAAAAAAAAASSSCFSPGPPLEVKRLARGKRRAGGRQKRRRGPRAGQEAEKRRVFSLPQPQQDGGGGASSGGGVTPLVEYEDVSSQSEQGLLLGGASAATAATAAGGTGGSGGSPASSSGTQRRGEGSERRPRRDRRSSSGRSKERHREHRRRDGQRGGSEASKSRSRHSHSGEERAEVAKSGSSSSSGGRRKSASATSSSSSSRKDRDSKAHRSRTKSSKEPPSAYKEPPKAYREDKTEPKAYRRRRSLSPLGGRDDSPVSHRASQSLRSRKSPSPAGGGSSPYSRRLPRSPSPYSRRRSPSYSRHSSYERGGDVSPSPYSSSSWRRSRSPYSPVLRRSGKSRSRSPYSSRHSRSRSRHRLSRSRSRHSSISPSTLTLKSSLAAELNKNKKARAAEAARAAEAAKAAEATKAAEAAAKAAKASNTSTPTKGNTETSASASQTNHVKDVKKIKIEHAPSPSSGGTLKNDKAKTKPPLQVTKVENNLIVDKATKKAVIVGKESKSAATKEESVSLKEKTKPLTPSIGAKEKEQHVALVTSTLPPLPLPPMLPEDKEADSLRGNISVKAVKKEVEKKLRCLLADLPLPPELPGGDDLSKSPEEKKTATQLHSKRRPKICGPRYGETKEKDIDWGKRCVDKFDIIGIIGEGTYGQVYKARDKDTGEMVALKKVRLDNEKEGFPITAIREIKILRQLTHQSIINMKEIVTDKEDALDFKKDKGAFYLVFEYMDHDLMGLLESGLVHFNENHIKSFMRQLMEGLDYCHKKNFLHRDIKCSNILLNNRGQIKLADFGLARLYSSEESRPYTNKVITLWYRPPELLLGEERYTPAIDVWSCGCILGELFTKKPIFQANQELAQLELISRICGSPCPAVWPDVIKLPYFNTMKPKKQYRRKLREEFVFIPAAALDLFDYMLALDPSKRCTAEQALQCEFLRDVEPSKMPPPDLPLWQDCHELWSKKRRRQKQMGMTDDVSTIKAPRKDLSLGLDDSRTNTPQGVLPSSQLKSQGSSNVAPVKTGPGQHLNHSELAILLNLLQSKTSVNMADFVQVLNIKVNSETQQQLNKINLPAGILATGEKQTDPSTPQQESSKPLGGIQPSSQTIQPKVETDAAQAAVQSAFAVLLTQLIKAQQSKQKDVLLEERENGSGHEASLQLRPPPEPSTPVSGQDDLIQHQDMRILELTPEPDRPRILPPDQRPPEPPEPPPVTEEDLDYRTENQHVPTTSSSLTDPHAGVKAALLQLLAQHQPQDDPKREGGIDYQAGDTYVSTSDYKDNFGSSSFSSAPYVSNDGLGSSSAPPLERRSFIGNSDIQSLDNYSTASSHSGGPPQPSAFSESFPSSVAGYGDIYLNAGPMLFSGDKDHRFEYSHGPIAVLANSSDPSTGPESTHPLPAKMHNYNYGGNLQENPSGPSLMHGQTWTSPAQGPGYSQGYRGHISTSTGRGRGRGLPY
CDK13/cyclinK(h), sequence (O75909 whole entry partner): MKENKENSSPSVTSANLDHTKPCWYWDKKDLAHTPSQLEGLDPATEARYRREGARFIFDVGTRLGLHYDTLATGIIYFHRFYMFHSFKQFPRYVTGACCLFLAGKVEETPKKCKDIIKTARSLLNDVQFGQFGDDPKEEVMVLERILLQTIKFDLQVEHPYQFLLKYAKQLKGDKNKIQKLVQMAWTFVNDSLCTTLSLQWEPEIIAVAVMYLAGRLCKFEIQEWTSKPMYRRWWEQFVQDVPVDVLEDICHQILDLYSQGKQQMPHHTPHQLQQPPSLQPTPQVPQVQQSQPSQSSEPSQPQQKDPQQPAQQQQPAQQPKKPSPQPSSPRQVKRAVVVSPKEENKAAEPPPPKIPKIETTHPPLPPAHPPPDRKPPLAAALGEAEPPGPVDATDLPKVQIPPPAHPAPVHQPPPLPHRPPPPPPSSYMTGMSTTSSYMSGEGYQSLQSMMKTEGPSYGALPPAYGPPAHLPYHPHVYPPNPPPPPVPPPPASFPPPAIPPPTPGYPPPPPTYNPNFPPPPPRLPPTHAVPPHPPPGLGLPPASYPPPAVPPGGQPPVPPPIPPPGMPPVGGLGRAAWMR
Summary of the method: as §1

CaMKIIδ(h) = target: T2, CaMKIIδ(h) (Homo sapiens, UniProt Q13557)
T2 construct: gene CAMK2D
Summary of the method: as §1

HIPK3(h) = HIPK3(h) (Homo sapiens, UniProt Q9H422)
HIPK3(h), sequence (Q9H422 whole entry): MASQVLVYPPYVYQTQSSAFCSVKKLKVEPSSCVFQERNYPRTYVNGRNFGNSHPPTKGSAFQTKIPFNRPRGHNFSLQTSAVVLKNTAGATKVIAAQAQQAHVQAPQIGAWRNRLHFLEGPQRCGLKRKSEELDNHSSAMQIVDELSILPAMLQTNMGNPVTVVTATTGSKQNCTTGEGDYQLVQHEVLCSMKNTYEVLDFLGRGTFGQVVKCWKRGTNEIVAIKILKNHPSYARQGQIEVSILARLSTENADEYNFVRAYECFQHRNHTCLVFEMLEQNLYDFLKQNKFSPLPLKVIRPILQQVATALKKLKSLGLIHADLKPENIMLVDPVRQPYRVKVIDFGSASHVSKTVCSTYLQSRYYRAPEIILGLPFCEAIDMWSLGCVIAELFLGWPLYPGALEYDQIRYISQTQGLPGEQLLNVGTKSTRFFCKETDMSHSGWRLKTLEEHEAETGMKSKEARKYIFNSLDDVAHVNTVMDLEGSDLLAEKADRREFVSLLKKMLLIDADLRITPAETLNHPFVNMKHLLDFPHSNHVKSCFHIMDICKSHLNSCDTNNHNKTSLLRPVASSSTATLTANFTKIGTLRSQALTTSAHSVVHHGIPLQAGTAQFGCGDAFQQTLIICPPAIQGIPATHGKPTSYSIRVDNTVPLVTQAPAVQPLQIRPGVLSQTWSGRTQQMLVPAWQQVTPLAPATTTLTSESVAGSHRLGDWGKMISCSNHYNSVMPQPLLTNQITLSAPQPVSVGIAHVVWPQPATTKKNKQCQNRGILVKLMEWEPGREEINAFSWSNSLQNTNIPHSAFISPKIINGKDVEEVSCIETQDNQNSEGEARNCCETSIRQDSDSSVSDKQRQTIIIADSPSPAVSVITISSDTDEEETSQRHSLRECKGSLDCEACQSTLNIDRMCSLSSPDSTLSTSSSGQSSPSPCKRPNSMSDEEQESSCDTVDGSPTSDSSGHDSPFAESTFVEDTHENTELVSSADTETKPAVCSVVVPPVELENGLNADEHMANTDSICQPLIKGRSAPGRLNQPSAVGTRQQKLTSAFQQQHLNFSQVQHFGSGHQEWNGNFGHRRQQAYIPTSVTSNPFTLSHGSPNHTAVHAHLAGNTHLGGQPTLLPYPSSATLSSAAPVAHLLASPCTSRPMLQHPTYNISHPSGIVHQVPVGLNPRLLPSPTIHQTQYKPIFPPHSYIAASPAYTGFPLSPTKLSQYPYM
Summary of the method: as §1

MAP4K3(h) = target: T3, MAP4K3(h) (Homo sapiens, UniProt Q8IVH8)
T3 sequence (Q8IVH8 1-894): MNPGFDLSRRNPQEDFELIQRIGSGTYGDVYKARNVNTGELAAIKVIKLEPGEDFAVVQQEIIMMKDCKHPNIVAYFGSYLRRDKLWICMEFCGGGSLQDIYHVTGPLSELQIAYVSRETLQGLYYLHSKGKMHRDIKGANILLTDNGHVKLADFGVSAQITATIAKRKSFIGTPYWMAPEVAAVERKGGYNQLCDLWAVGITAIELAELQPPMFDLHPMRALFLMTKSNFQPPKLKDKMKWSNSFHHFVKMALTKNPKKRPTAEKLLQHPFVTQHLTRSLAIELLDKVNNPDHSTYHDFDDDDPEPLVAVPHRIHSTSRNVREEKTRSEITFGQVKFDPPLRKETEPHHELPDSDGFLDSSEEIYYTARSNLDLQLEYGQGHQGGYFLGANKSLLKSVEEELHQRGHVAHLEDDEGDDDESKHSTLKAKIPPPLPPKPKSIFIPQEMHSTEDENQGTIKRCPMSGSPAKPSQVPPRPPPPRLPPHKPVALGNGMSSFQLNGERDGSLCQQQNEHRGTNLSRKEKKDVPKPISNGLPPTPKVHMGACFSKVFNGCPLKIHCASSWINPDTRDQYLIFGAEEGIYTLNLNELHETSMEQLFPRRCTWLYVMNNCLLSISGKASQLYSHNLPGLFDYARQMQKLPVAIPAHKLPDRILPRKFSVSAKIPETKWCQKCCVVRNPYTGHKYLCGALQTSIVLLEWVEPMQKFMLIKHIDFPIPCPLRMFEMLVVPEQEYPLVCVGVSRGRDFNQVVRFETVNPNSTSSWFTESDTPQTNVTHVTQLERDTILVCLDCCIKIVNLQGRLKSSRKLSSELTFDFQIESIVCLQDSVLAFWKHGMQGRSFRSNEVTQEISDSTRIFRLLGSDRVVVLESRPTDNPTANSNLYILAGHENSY
Summary of the method: as §1

[1] = target: T4, PI3 Kinase (p110a(H1047R)/p85a)(h) (Homo sapiens, UniProt P42336, H1047R)
T4 construct: gene PIK3CA
Summary of the method: as §1

[2] = target: T5, PI3 Kinase (p110d/p85a)(m) (Mus musculus, UniProt O35904)
T5 construct: gene Pik3cd
T5 sequence (O35904 whole entry): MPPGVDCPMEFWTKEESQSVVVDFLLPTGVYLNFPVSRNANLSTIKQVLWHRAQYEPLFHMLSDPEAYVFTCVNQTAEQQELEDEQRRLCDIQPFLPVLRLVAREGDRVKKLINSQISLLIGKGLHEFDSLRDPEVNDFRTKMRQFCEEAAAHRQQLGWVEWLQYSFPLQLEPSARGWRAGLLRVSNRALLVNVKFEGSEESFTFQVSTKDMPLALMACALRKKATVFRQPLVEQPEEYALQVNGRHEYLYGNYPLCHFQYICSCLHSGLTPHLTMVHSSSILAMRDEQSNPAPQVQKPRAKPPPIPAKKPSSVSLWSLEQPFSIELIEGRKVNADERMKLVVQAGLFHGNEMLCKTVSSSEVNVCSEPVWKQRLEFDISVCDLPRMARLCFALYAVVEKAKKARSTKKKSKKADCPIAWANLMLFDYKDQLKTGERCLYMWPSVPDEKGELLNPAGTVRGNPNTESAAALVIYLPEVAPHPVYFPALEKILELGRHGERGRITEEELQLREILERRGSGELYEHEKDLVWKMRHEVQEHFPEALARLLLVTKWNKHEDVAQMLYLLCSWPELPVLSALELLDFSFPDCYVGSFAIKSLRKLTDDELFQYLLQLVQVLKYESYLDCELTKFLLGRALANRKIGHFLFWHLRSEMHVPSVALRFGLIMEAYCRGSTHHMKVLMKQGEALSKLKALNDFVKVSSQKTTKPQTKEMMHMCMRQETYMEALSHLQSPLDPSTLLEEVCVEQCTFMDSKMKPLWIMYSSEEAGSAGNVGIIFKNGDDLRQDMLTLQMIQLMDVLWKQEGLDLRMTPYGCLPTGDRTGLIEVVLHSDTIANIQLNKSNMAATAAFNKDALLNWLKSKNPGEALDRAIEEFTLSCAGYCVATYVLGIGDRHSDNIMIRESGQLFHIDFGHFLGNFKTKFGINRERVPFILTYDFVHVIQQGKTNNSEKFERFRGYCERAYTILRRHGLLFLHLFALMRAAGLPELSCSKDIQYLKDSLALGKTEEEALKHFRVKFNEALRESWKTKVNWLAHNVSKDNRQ
T5 sequence (P26450 whole entry partner): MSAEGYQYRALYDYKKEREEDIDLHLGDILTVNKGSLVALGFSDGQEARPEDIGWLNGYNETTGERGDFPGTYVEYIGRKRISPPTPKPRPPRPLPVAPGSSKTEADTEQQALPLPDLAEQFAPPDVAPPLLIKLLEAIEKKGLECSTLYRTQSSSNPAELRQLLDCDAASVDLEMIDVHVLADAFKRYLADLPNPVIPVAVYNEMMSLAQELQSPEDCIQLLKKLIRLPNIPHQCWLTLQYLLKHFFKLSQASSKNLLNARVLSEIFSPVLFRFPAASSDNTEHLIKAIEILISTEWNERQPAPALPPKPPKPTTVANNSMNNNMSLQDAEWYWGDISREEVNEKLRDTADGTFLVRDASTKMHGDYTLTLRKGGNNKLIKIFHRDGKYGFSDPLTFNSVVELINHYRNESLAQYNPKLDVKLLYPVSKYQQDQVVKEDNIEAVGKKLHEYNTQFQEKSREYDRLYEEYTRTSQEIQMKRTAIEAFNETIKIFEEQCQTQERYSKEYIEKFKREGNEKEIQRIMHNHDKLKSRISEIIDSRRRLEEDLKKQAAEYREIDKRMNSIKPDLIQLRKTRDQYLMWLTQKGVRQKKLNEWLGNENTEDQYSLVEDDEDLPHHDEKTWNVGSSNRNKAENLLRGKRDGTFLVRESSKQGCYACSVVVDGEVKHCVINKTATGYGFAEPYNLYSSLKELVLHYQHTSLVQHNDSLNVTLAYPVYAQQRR
Summary of the method: as §1

Ron(h) = target: T6, Ron(h) (Homo sapiens, UniProt Q04912)
T6 construct: gene MST1R
Summary of the method: as §1

SLK(h) = SLK(h) (Homo sapiens, UniProt Q9H2G2)
Summary of the method: as §1

[3] = read-out: Residual activity (%) 5at
[4] = read-out: Residual activity (%) 5as
[5] = read-out: Residual activity (%) 5ay
[6] = read-out: Residual activity (%) Spautin-1 5aa

With `Fc1ccc2ncnc(NCCc3ccc(Cl)cc3)c2c1` [5at, N-[2-(4-Chlorophenyl)Ethyl]-6-Fluoro-4-Quinazolinamine] as the molecule, how does the remaining activity at 10 µM (Aurora-A(h); [3]) read?
The remaining activity at 10 µM was 70%.

What about the remaining activity at 10 µM (Blk(m); [3]) of the same molecule?
The remaining activity at 10 µM was 98%.

What about the remaining activity at 10 µM (CDK13/cyclinK(h); [3]) of the same molecule?
Its remaining activity at 10 µM is 114%.

And the remaining activity at 10 µM (CaMKIIδ(h); [3])?
Its remaining activity at 10 µM is 77%.

And the remaining activity at 10 µM (HIPK3(h); [3])?
The remaining activity at 10 µM was 95%.

What about the remaining activity at 10 µM (MAP4K3(h); [3]) of the same molecule?
Its remaining activity at 10 µM is 93%.

And the remaining activity at 10 µM [1, 3]?
Its remaining activity at 10 µM is 94%.

And the remaining activity at 10 µM [2, 3]?
The remaining activity at 10 µM was 93%.

What about the remaining activity at 10 µM (Ron(h); [3]) of the same molecule?
Its remaining activity at 10 µM is 101%.

And the remaining activity at 10 µM (SLK(h); [3])?
Its remaining activity at 10 µM is 78%.

Which remaining activity at 10 µM (Aurora-A(h); [4]) does the source give for `Fc1ccc(CCNc2ncnc3ccc(F)cc23)cc1` [5as, 6-Fluoro-N-[2-(4-Fluorophenyl)Ethyl]-4-Quinazolinamine] here?
Its remaining activity at 10 µM is 87%.

What about the remaining activity at 10 µM (Blk(m); [4]) of the same molecule?
Its remaining activity at 10 µM is 100%.

And the remaining activity at 10 µM (CDK13/cyclinK(h); [4])?
The remaining activity at 10 µM was 35%.

What about the remaining activity at 10 µM (CaMKIIδ(h); [4]) of the same molecule?
Its remaining activity at 10 µM is 79%.

What about the remaining activity at 10 µM (HIPK3(h); [4]) of the same molecule?
Its remaining activity at 10 µM is 98%.

And the remaining activity at 10 µM (MAP4K3(h); [4])?
Its remaining activity at 10 µM is 87%.

What about the remaining activity at 10 µM [1, 4] of the same molecule?
The remaining activity at 10 µM was 97%.

What about the remaining activity at 10 µM [2, 4] of the same molecule?
The remaining activity at 10 µM was 93%.

What about the remaining activity at 10 µM (Ron(h); [4]) of the same molecule?
Its remaining activity at 10 µM is 109%.

What about the remaining activity at 10 µM (SLK(h); [4]) of the same molecule?
The remaining activity at 10 µM was 77%.

With `COc1ccc2ncnc(Nc3cccc(F)c3)c2c1` [5ay, N-(3-Fluorophenyl)-6-Methoxy-4-Quinazolinamine] as the molecule, how does the remaining activity at 10 µM (Aurora-A(h); [5]) read?
Its remaining activity at 10 µM is 79%.

And the remaining activity at 10 µM (Blk(m); [5])?
Its remaining activity at 10 µM is 102%.

And the remaining activity at 10 µM (CDK13/cyclinK(h); [5])?
Its remaining activity at 10 µM is 105%.

What about the remaining activity at 10 µM (CaMKIIδ(h); [5]) of the same molecule?
The remaining activity at 10 µM was 41%.

What about the remaining activity at 10 µM (HIPK3(h); [5]) of the same molecule?
Its remaining activity at 10 µM is 84%.

What about the remaining activity at 10 µM (MAP4K3(h); [5]) of the same molecule?
Its remaining activity at 10 µM is 87%.

And the remaining activity at 10 µM [1, 5]?
Its remaining activity at 10 µM is 96%.

What about the remaining activity at 10 µM [2, 5] of the same molecule?
Its remaining activity at 10 µM is 96%.

What about the remaining activity at 10 µM (Ron(h); [5]) of the same molecule?
The remaining activity at 10 µM was 88%.

What about the remaining activity at 10 µM (SLK(h); [5]) of the same molecule?
Its remaining activity at 10 µM is 70%.

What does the source list for `Fc1ccc(CNc2ncnc3ccc(F)cc23)cc1` [5aa, 6-Fluoro-N-(4-fluorobenzyl)-4-Quinazolinamine]?
remaining activity at 10 µM (Aurora-A(h); [6]): 81%; remaining activity at 10 µM (Blk(m); [6]): 91%; remaining activity at 10 µM (CDK13/cyclinK(h); [6]): 75%; remaining activity at 10 µM (CaMKIIδ(h); [6]): 90%; remaining activity at 10 µM (HIPK3(h); [6]): 93%; remaining activity at 10 µM (MAP4K3(h); [6]): 99%; remaining activity at 10 µM [1, 6]: 99%; remaining activity at 10 µM [2, 6]: 97%; remaining activity at 10 µM (Ron(h); [6]): 98%; remaining activity at 10 µM (SLK(h); [6]): 98%
